Measured values published in US20110098261A1, “TRITERPENOID-BASED COMPOUNDS USEFUL AS VIRUS INHIBITORS” (priority 2008, published 2011).
Read-outs that look alike come from different tables or passages of the source.

How the values were obtained:
[1] = tested on: chicken embryo fibroblast (CEF) cells
[2] = tested on: avian influenza virus KBNP-0028 (KCTC 10866BP); format: cell-based, A/chicken/Korea/SNU0028/2000(H9N2)

C=C(C)[C@@H]1CC[C@]2(C=O)CC[C@]3(C)[C@H](CC[C@@H]4[C@@]5(C)CC[C@H](O)C(C)(C)[C@@H]5CC[C@]43C)[C@@H]12 [12B-AJ-26A, betulinic aldehyde]
Cytotoxicity assay (absorbance) ([1]; 6.25 μg/mL): 0.352 | Cytotoxicity assay (absorbance) ([1]; 12.5 μg/mL): 0.326 | Cytotoxicity assay (absorbance) ([1]; 25 μg/mL): 0.324 | Cytotoxicity assay (absorbance) ([1]; 50 μg/mL): 0.325 | Cytotoxicity assay (absorbance) ([1]; 100 μg/mL): 0.434 | Cytotoxicity assay (absorbance) ([1]; 200 μg/mL): 0.421 | Antiviral activity (in words) [2]: showed antiviral activity
